{"source": "patent US12515027B2", "about": "“Subcutaneous biodegradable reservoir device” (Research Triangle Institute, priority 2018, dated 2026)", "key": {"[1]": {"assay": "Solubility of active agents in excipients (saturated solutions, UPLC/UV)", "procedure": "Over a 24-hour period, the solutions were mixed periodically and returned to the water bath. After approximately 72 hours, the solutions were removed from the water bath and appearance recorded for each of the saturated solutions. […] The supernatants were prepared for analysis by UPLC. Triplicate weighed aliquots were prepared from the collected supernatants and analyzed for assay using a UPLC/UV method. The analysis was performed using a Waters BEH C18 column (2.1 mm×50 mm, 1.7 μm) under gradient, reversed phase conditions with detection at 260 nm. The saturated solutions were quantitated by linear regression analysis against a 5-point calibration curve.\nTesting using the same methodology was performed for EFdA, LNG, and ENG using various excipients."}, "[2]": {"assay": "In vitro release from PCL reservoir implants in PBS pH 7.4 at 37 °C (UV-Vis)", "type": "physicochemical", "conditions": "for release rate of TAF: first 30 days, normalized to 314 mm^2; for release rate of TAF from implant: summary b130; for TAF dosage (daily release rate): release over 35 days, FIG. 24; for Release Rates of TAF, Gamma-Irradiated: 18-24 kGy", "procedure": "The implants were incubated in 1×PBS (pH 7.4) at 37° C. Drug quantity released in media was measured via UV-Vis three times per week during which the implants were transferred to fresh buffer to maintain sink conditions. Drug concentrations were determined by correlating UV absorbance values to a standard curve. Standard curves involved measuring peak absorbance values as a function of drug concentrations diluted by half from bulk solutions. Peak absorbance values were determined by scanning the dilute drug solutions from 230 to 700 nm at a step size of 1 nm and assessing the maximum UV absorbance value.\nTesting was performed to evaluate release kinetics of varying formulations of active agent and excipient. In particular, the release mechanism and release profiles for TAF formulated with varying mass quantities of castor oil from extruded PCL tubes was evaluated. Heat extruded PCL devices were fabricated (2.5 mm×40 mm) using 80 kDa Sigma grade PCL. […] For the in vitro release studies, devices were incubated in 40 mL of phosphate buffered saline (PBS) at pH 7.4 in a shaking incubator at 37° C. The implants were transferred to fresh buffer three times per week to maintain sink conditions.\nTesting was performed to evaluate the in vitro release profile for an exemplary segmented device. In-vitro conditions included a simulated physiological media of a salt solution at pH between 6.5 and 7.5 at a temperature of 37° C. The exemplary device was engineered to release two APIs simultaneously, both at zero-order release kinetics. The device was fabricated with a segmented architecture that contained LNG formulated with ethyl oleate at a 1:4 ratio and EFdA formulated with castor oil at a 1:1 ratio and housed in separate compartments within a single implant design. Different segment lengths, polymer membrane thicknesses and polymer properties were tested.\nIn vitro release characterization involved incubation of the implants in 40 mL 1× phosphate buffered saline (PBS) (pH 7.4) at 37° C. and placed on an orbital shaker. […] The release buffer was sampled three times per week during which the devices were transferred to 40 mL of fresh buffer to maintain sink conditions. TAF quantity released in each PBS buffer during the time interval was calculated and cumulative mass of drug release as a function of time was determined."}, "[3]": {"assay": "Chromatographic purity (stability) of formulation inside implant after in-vitro exposure (UPLC/UV)", "type": "physicochemical", "conditions": "after 180 days in simulated physiological conditions"}, "[4]": {"conditions": "subcutaneous implant, up to 90 days", "protocol": "Testing was performed to evaluate the in vivo release profile of an exemplary device."}, "[5]": {"conditions": "subdermal silicone implant with PVA-coated channels, beagle dogs; cited from earlier work"}}, "note": "Several values for one entry are separate records, joined by “and”; a condition that tells them apart may be missing. Identical values can stand only once. Counter-ions that a name gives are not always drawn.", "data": [{"smiles": "CC(C)OC(=O)[C@H](C)N[P@](=O)(CO[C@H](C)Cn1cnc2c(N)ncnc21)Oc1ccccc1", "note": "[TAF, Tenofovir Alafenamide Fumarate]", "values": [{"measurement": "solubility at 72 h", "setting": "[1]; 37 °C, oil or lipid, thermodynamic from solid", "result": 3900, "unit": "µg/mL"}, {"measurement": "solubility of TAF within four different excipients", "setting": "[1]; sesame oil, castor oil, oleic acid, PEG 600, FIG. 8", "result": "most soluble in oleic acid and PEG600"}, {"measurement": "release rate of TAF", "setting": "[2]; 2:1 TAF:castor oil, 45 μm wall", "result": "0.91 ± 0.23", "unit": "mg/day"}, {"measurement": "release rate of TAF", "setting": "[2]; 2:1 TAF:castor oil, 70 μm wall", "result": "0.61 ± 0.09", "unit": "mg/day"}, {"measurement": "release rate of TAF", "setting": "[2]; 2:1 TAF:castor oil, 100 μm wall", "result": "0.29 ± 0.05", "unit": "mg/day"}, {"measurement": "release rate of TAF", "setting": "[2]; 2:1 TAF:castor oil, 150 μm wall", "result": "0.19 ± 0.04", "unit": "mg/day"}, {"measurement": "release rate of TAF", "setting": "[2]; 2:1 TAF:castor oil, 200 μm wall", "result": "0.15 ± 0.03", "unit": "mg/day"}, {"measurement": "initial release rate", "setting": "[2]; 4:1 TAF-castor oil formulation", "result": 0.2, "unit": "mg/day"}, {"measurement": "initial release rate", "setting": "[2]; 5:1 TAF-castor oil formulation", "result": 0.4, "unit": "mg/day"}, {"measurement": "release rate of TAF from implant", "setting": "[2]; 45 μm PCL wall", "result": "approximately 0.8 mg/day"}, {"measurement": "TAF dosage (daily release rate)", "setting": "[2]; 45 μm wall thickness, 2:1 TAF:castor oil", "result": "0.78 ± 0.03", "unit": "mg/day"}, {"measurement": "release rate of TAF from implant", "setting": "[2]; 200 μm PCL wall", "result": "~0.2", "unit": "mg/day"}, {"measurement": "TAF dosage (daily release rate)", "setting": "[2]; 200 μm wall thickness, 2:1 TAF:castor oil", "result": "0.13 ± 0.01", "unit": "mg/day"}, {"measurement": "Release Rates of TAF, Non-Irradiated", "setting": "[2]; PC-12, 70 μm wall", "result": "0.37 ± 0.05", "unit": "mg/day"}, {"measurement": "Release Rates of TAF, Gamma-Irradiated", "setting": "[2]; PC-12, 70 μm wall", "result": "0.30 ± 0.03", "unit": "mg/day"}, {"measurement": "Release Rates of TAF, Non-Irradiated", "setting": "[2]; PC-12, 100 μm wall", "result": "0.20 ± 0.03", "unit": "mg/day"}, {"measurement": "Release Rates of TAF, Gamma-Irradiated", "setting": "[2]; PC-12, 100 μm wall", "result": "0.20 ± 0.02", "unit": "mg/day"}, {"measurement": "Release Rates of TAF, Non-Irradiated", "setting": "[2]; Sigma-PCL, 70 μm wall", "result": "0.62 ± 0.09", "unit": "mg/day"}, {"measurement": "Release Rates of TAF, Gamma-Irradiated", "setting": "[2]; Sigma-PCL, 70 μm wall", "result": "0.54 ± 0.06", "unit": "mg/day"}, {"measurement": "Release Rates of TAF, Non-Irradiated", "setting": "[2]; Sigma-PCL, 100 μm wall", "result": "0.29 ± 0.05", "unit": "mg/day"}, {"measurement": "Release Rates of TAF, Gamma-Irradiated", "setting": "[2]; Sigma-PCL, 100 μm wall", "result": "0.32 ± 0.03", "unit": "mg/day"}, {"measurement": "Measured release rates for full sized device", "setting": "[2]; TAF castor oil devices (1:1, 2:1, 3:1), PCL wall 70 μm, 2.5 mm x 40 mm", "result": "0.7 mg/day and 0.7 ± 0.08 mg/day"}, {"measurement": "Measured release rates for full sized device", "setting": "[2]; TAF castor oil devices, PCL wall 100 μm", "result": "0.38 ± 0.04", "unit": "mg/day"}, {"measurement": "Measured release rates for full sized device", "setting": "[2]; TAF castor oil devices, PCL wall 200 μm", "result": "0.22 ± 0.01", "unit": "mg/day"}, {"measurement": "J, drug released from the membrane per unit area per unit time", "setting": "[2]; TAF castor oil, 70 μm, surface area 314 mm^2", "result": 0.002, "unit": "mg/day/mm^2"}, {"measurement": "start of depletion", "setting": "[2]; TAF:castor oil 1:1, 70 μm, 2.5 mm x 40 mm", "result": 76, "unit": "days"}, {"measurement": "start of depletion", "setting": "[2]; TAF:castor oil 2:1, 70 μm, 2.5 mm x 40 mm", "result": 83, "unit": "days"}, {"measurement": "TAF remaining within the implant", "setting": "[2]; after 180 days in vitro, payload approximately 115 mg", "result": "approximately 68 mg"}, {"measurement": "sustained release rate of TAF", "setting": "[2]; over the course of 180 days in vitro, 2:1 TAF:castor oil, 100 μm wall, 2.5 mm OD x 40 mm", "result": "0.25 ± 0.03", "unit": "mg/day"}, {"measurement": "duration of zero-order release from segmented implants", "setting": "[2]; segmented implants of TAF with LNG or ENG", "result": 50, "unit": "days"}, {"measurement": "chromatographic purity of TAF remaining in implant", "setting": "[3]", "result": "89.2±0.8", "unit": "%"}, {"measurement": "reactivity at the site of the implant", "setting": "[4]", "result": "minimal reactivity"}, {"measurement": "duration of drug delivery", "setting": "[5]", "result": 40, "unit": "days"}]}]}
